Results reported in US20250000829A1, “PHENYLBUTYRATE COMPOSITIONS FOR TREATING DEVELOPMENTAL AND EPILEPTIC ENCEPHALOPATHY (“DEE”), AND STXBP1 DISORDERS” (priority 2023, published 2025).
Where “and” joins values, the source holds several entries; their conditions need not be identical. Equal entries are not always repeated. Where two headings read alike, the source gives them in different places.

Assays:
[1] = tested on: children with STXBP1-E and SLC6A1-NDD; experiment: Open-label pilot study of glycerol phenylbutyrate: seizure response (seizure diary); format: in vivo, human; conditions: of 20 participants
Text: (§1) After institutional review board approval, 20 participants were enrolled in a single treatment group, multiple-dose, open-label, pilot study to evaluate the safety, tolerability, pharmacokinetics (PK) and pharmacodynamics (PD) of glycerol phenylbutyrate in children with STXBP1-E and SLC6A1-NDD.
Participants in the study were patients aged 2 months to 17 years with STXBP1-E and seizures or with SLC6A1-NDD. People with SLC6A1 typically experience seizures later in life (typically middle of 1st decade) and so seizures were not an entry criterion for participants with SLC6A1. During enrollment preference was given to patients between 2 months and 3 years old (target of 5 patients) and patients between 4 and 10 years old (target 5 patients). This is because younger patients up to 3 years old may be more sensitive to possible pharmacodynamics and efficacy endpoints and, to a lesser extent, the same may be true for patients 4 to 10 years, as compared to older patients. The study enrolled 11 patients, including 4 children between 2 months and 2 years.
A daily dose of 11.2 mL/m^2, equivalent to 12.4 g/m^2, was given, enterally (by mouth or, if necessary, by nasogastric or gastrostomy tube). The daily dose was divided into three equally divided doses, with each dose given with food.
FIG. 3 is a schedule of assessments for measuring the effectiveness of glycerol phenylbutyrate to treat patients with STXBP1-E and SLC6A1-NDD. […]
Response to the medication was measured qualitatively and quantitatively using the following measures. Quantitative and qualitative measures included the change in the number of and percent change in the seizures per week, as recorded in the seizure diary, comparing weeks 1-4 with weeks 5-10; change and percent change in number of seizures per hour, as recorded by video EEG, comparing visit 5 (day before medication) to visit 6 (first day of medication), and comparing visit 5 to visit 14 (40 days after the first day of medication); and changes in […] in EEG data, comparing visit 5 to visit 6 and visit 5 to visit 14. Additional measures comparing visit 5 and visit 14 included quality of life assessment, as quantified by the change in PEDSQL epilepsy module score, and by the trajectory and overall change in the PELHS QOL-2 score; qualitative analysis of the participant's development and behavior; change in developmental assessment scores; ataxia as measured by changes in SARA scale score; and sleep as measured by CSHQ score. Medication dosing adherence was also assessed, quantified as the percentage of days in which the participant received the full prescribed dose, and considering obstacles to adherence qualitatively as reported by caregivers. […]

[2] = tested on: children with STXBP1-E and SLC6A1-NDD; experiment: Open-label pilot study: communication assessed with the ORCA; format: in vivo, human; conditions: assessed at 10 weeks of drug exposure
Experimental: as §1
Development was assessed using several pre-specified measures (Vineland, ORCA) as well as an assessment by a pediatric development expert (i.e. a physician, neuropsychologist, or psychologist with expertise in administering and interpreting developmental assessments). During the assessment, several additional validated measures may have been used. These may have included (but were not limited to) the Bayley Scales of Infant and Toddler Development, the Childhood Autism Rating Scale, the Child Behavior Checklist, the Behavior Rating Inventory of Executive Function, the Infant Toddler Social Emotional Assessment, the DAYC (Developmental Assessment of Young Children), or other similar validated scales. […]
(§2) Visit 14 was a treatment evaluation visit and was conducted in person at least 40 days after the first day of medication administration. […] The participant was evaluated by a developmental pediatrician, neuropsychologist, or psychologist, in the same fashion as during visit 5.
(§3) Response to the medication was measured qualitatively and quantitatively using the following measures. […]

[3] = tested on: children with STXBP1-E and SLC6A1-NDD; experiment: Open-label pilot study: sleep assessed with the Child's Sleep Habits Questionnaire (CSHQ); format: in vivo, human; conditions: assessed at 10 weeks of drug exposure
Experimental: as §1
Visit 5 was a pre-treatment baseline visit conducted at least 28 days after visit 1 and the day before treatment initiation. This visit was conducted in person while the patient was admitted to hospital. During this visit, the investigator reviewed the participant's seizure diary and medical history. […]
as §2
Response to the medication was measured qualitatively and quantitatively using the following measures. […] Additional measures comparing visit 5 and visit 14 included quality of life assessment, as quantified by the change in PEDSQL epilepsy module score, and by the trajectory and overall change in the PELHS QOL-2 score; qualitative analysis of the participant's development and behavior; change in developmental assessment scores; ataxia as measured by changes in SARA scale score; and sleep as measured by CSHQ score. […]

[4] = tested on: children with STXBP1-E and SLC6A1-NDD; experiment: Open-label pilot study: quality of life assessed with the PEDSQL epilepsy module; format: in vivo, human; conditions: assessed at 10 weeks of drug exposure
Experimental: as §1
Quality of life was assessed using the Pediatric Quality of Life Inventory (PEDSQL) epilepsy module, which is a validated scale about quality of life for children with epilepsy, and the Pediatric Epilepsy Learning Healthcare System Quality of Life survey (PELHS QOL 2), which is a set of two questions that ask how seizures and medication side effects alter usual routines. The PEDSQL is provided at eprovide.mapi-trust.org/instruments/pediatric-quality-of-life-inventory-epilepsy-module.
Visit 5 was a pre-treatment baseline visit conducted at least 28 days after visit 1 and the day before treatment initiation. This visit was conducted in person while the patient was admitted to hospital. […]
as §2, §3

[5] = tested on: child with SLC6A1; experiment: Open-label pilot study: EEG before and after treatment; format: in vivo, human; conditions: 10 second EEG, same child with SLC6A1, six weeks after treatment vs prior to treatment (brief absence seizure)
Experimental: Investigators noted EEG changes, including standard clinical interpretation of the EEG and video (particularly for abnormal movements).
Visit 5 was a pre-treatment baseline visit conducted at least 28 days after visit 1 and the day before treatment initiation. This visit was conducted in person while the patient was admitted to hospital. During this visit, the investigator reviewed the participant's seizure diary and medical history. The investigator administered several assessments, including the PEDSQL Epilepsy Module, the PELHS QOL 2, the SARA Scale, the CARS, the CSHQ, and the ORCA. The participant was given a physical exam and had urine and blood samples collected for a series of laboratory tests. Laboratory tests included routine laboratory tests and specialized laboratory tests. Routine laboratory tests that were conducted included a complete blood count (CBC), chemistry panels, liver function tests (LFTs), urinalysis, amylase test, lipase test, anti-seizure medication (ASM) levels test, and electrocardiogram (EKG). […]
Visit 14 was a treatment evaluation visit and was conducted in person at least 40 days after the first day of medication administration. […] The participant was evaluated by a developmental pediatrician, neuropsychologist, or psychologist, in the same fashion as during visit 5. […]

[6] = Blood/plasma and CSF levels of phenylbutyrate after glycerol phenylbutyrate dosing; format: in vivo, human; conditions: doses of 12 g/m^2/day, extrapolated from 3 g/m^2/day
Experimental: Dosing was sufficient to lead to therapeutic concentrations in the range of 0.25 mM to 1 mM in serum and CSF, based on the following observations. […] CSF levels are approximately ½ to ¼ of serum levels, based on data from non-human primates, thus CSF levels of 0.25 to 0.5 mM were assumed.
The secondary endpoints were measuring plasma concentration of phenylbutyrate and active metabolites. Plasma levels of phenylbutyrate peaked at 2 hours after an oral dose. Thus investigators aimed to obtain levels within 90-150 minutes after the oral dose.

[7] = based on Lexicomp; cited from earlier work
[8] = cited from earlier work
[9] = mice; via the monocarboxylate transporter 1 mechanism; cited from earlier work
[10] = non-human primates; via the monocarboxylate transporter 1 mechanism; cited from earlier work
[11] = daily dose 11.2 mL/m^2 enterally

Q: What does the source list for `O=C(CCCc1ccccc1)OCC(COC(=O)CCCc1ccccc1)OC(=O)CCCc1ccccc1` [glycerol phenylbutyrate]?
A: Responders (50% or more reduction in seizures clinically associated with the use of glycerol phenylbutyrate) ([1]; daily dose 11.2 mL/m^2 (12.4 g/m^2) enterally in three divided doses): 11 participants; Indeterminant response (improvement, but less than 50% reduction in seizures or not clinically associated with use) [1, 11]: 3 participants; Non-responders [1, 11]: 2 participants; Participants that had no seizures [1, 11]: 4 participants; Participants with improved communication, as assessed with the ORCA [2]: 8 of 11; Participants with improved sleep, as assessed with the CSHQ [3]: 5 of 12; Participants with improved quality of life, as assessed with the PEDSQL [4]: 4 of 11; Seizure activity in EEG after treatment [5]: did not show seizure activity; Concentration in serum [6]: ~1000 µM; Side effect frequency: abdominal pain [7]: 7%; Side effect frequency: decreased appetite [7]: 7%; Side effect frequency: diarrhea [7]: 16%; Side effect frequency: dyspepsia [7]: 5%; Side effect frequency: fatigue [7]: 7%; Side effect frequency: flatulence [7]: 14%; Side effect frequency: headache [7]: 14%; Side effect frequency: nausea [7]: 2%; Side effect frequency: vomiting [7]: 7%; Blood levels of phenylbutyric acid ([8]; doses of 3 g/m^2/day of glycerol phenylbutyrate, adults): 38 μg/mL and 0.23 mM; Crossing of the blood-brain barrier [9]: crosses the blood-brain barrier; Crossing of the blood-brain barrier [10]: crosses the blood-brain barrier

Q: For phenylbutyric acid [phenylbutyrate], which “Time of peak plasma levels of phenylbutyrate” value ([8]; after an oral dose) is on record?
A: Its value is 2 h.
